From US6884575B2, “Phosphoprotein target for insulin and its antagonists” (Protemix Corporation Limited, priority 2001, dated 2005)
Where “and” joins values, the source holds several entries; their conditions need not be identical. Equal values may be shown once. Ends that are not written are not given here.

Tests used:
Male Wistar rats = type: in vivo, rat
Experimental: (§1) All experimental protocols were approved by the Institutional Animal Ethics Committee. Male Wistar rats were injected with dexamethasone (3.1 mg/kg/day, intraperitoneally) for 7 days. The daily weights of rats in both control and dexamethasone-treated groups were monitored. […] Rats were fasted for 18 h prior to each experiment and were killed by cervical dislocation. Blood was obtained by cardiac puncture from anesthetized animals. The mean blood glucose concentration was 5.4±0.2 mM and 10.8±0.6 mM in control and dexamethasone-treated rats, respectively, as measured with a YSI 2300STAT glucose/lactate analyser (Yellow Springs Instruments). […] Insulin and amylin concentrations in the blood of normal and insulin resistant rats were determined as described (17). Rats with insulin resistance induced by chronic high fat feeding were generated as described previously (26).

P20 [1] = assay: Phosphorylation of P20 isoforms in 32P-labelled rat EDL muscle strips (2-DE, phosphorimaging); type: cell-based; conditions: for radioactivity of P20 isoform S1 / radioactivity of P20 isoform S2 / radioactivity of P20 isoform S3: hormones 50 nM, 30 min, n=4
Experimental: Rat extensor digitorum longus (EDL) muscle strips were prepared from 18 h-fasted rats. Dissection and isolation of muscles were carried out under anaesthesia with pentobarbital (5-7 mg/100 g of body weight, intraperitoneally) as described previously (23). Each muscle was split into three ˜1 mm width strips. Muscle strips were pre-incubated in a shaking incubator at 30° C. for 1 h in 5 ml of Dulbecco's Modified Eagle's medium without sodium phosphate. All incubation media were gassed with a mixture of 95% O2 and 5% CO2. The muscle strips were subsequently transferred to similar flasks containing identical medium plus 0.25 mCi/ml [^32P]-orthophosphate and incubated for a further 4 h to equilibrate the internal ATP pool (23, 24). Human insulin, rat amylin, epinephrine or CGRP were then added to the incubation media for 30 min at stated final concentrations. Reactions were terminated by freezing muscle strips in liquid nitrogen immediately after incubation. Muscle strips were then weighed and stored at −80° C. until further analysis.
Muscle strips were homogenized in 2-DE lysis buffer (9M urea, 2% v/v triton X-100, 2% v/v pharmalyte pH 3-10, 200 mM DTT, 8 mM PMSF) for 5 min on ice. The lysates were briefly sonicated and microcentrifuged at 12,000 rpm for 10 min to remove debris. Protein concentrations were determined by the Bradford method and radioactivity was measured by liquid scintillation counting. ^32P-labelled lysates with equivalent amounts of radioactivity were isoelectrically focused on IPG Drystrip pH 4-7 and pH 3-10 Linear gels using a multiphor RII electrophoresis system according to the manufacturer's instructions. Second dimensional SDS-PAGE was carried out using ExcelGel™ precast 12-14% acrylamide gradient gels. After electrophoresis the gels were fixed in 10% glacial acetic acid, 40% ethanol and the proteins visualized by phosphorimaging or autoradiography.
Autoradiography films were scanned and digitised using a Sharp JX-325 scanner, and protein spots detected, quantitated and analysed using the Melanie II software package, ver. 2.2 (Biorad). The detection parameters were: smooth 2, Laplacian threshold 3, partials threshold 1, saturation 90, peakedness increase 100 and minimum perimeter 10. The matching of multiple features to one feature was not allowed. The pixel value is the optical density (OD). Features were calculated as a percentage of the sum of VOL (the feature's volume, i.e., the integration of OD over the feature's area) for all features on the gel. The radioactivity of protein spots was also detected by a phosphorimager and analysed by MacBAS v2.5 software. […] All the results presented are based on at least three independent experiments. Statistical analysis was performed using the t-test (paired two sample).

skeletal muscle = assay: In vitro [14C(U)]-D-glucose incorporation assay in skeletal muscle (insulin-stimulated glycogen synthesis); type: cell-based, rat; conditions: muscle of dexamethasone-treated rats
Experimental: as §1

L6 myotubes = assay: 2-deoxyglucose uptake in L6 myotubes; type: cell-based
Experimental: L6 myoblast cells were transfected with pCXN2-GLUT4myc (27), or co-transfected with pCXN2-GLUT4myc and pcDNA.P20, using Lipofectamine Plus reagent according to the manufacturer's instructions. Stable transfectants were selected in medium containing the neomycin analogue G418 at 400 μg/ml. At 10 days after transfection, the clones were selected using sterilised steel rings and expanded separately in the presence of G418. Clones that express P20 and myc-tagged GLUT4 were chosen by western blotting and used for further experiments.
L6 cells stably overexpressing myc-tagged GLUT4, or myc-tagged GLUT4 plus P20, were grown in 6-well plates and differentiated into myotubes in DMEM containing 2% fetal bovine serum for 7 days. The cells were deprived of serum for 16 h prior to experiments. For glucose uptake assays, L6 myotubes were rinsed three times with Krebs-Henseleit buffer (KHB) and incubated in KHB with or without hormones (insulin or insulin plus amylin) at the indicated concentrations for 15 min at 37° C. Carrier-mediated glucose uptake of 10 μM 2-deoxy-D-[^3H] glucose in the above solution was measured for 15 min at 37° C. This was followed by rinsing the cells three times with ice-cold PBS and cell disruption with 0.1 N NaOH. The associated radioactivity was determined by liquid scintillation counting. The protein concentration was measured with a BCA protein quantitation kit (PIERCE). The nonspecific uptake was determined in the presence of 10 μM cytochalasin B and subtracted from each value.

P20 [2] = assay: P20 mRNA (northern blot) and protein (western blot) in EDL muscle; type: cell-based, rat; conditions: dexamethasone-injected rats or strips with 50 nM amylin 30 min
Experimental: About 50 μg proteins from liver, heart, epididymal fat pad, aortic smooth muscle, EDL muscle, soleus muscle tissues and whole blood obtained from 18 h-fasted male Wistar rats were separated by SDS-PAGE and subsequently transferred to nitrocellulose membranes. The membranes were blocked over night at 4° C. and then incubated with rabbit anti-P20 polyclonal antibody (1:1000) for 2 h at room temperature. After incubation with streptavidin-biotinylated horseradish peroxidase-conjugated secondary antibody for another 1 h at room temperature, the proteins immunoreactive to the primary antibody were visualised by enhanced chemiluminescence (ECL) detection according to the manufacturer's instructions.
Total cellular RNA was isolated from EDL muscle of 18 h-fasted control and dexamethasone-treated rats using TRIZOL reagent. 15 μg of RNA from each sample was separated by 1.5% agarose-formaldehyde gel electrophoresis and subsequently transferred to Hybond-N^+ nylon membranes by capillary blotting in 20×SSC. The P20 cDNA probe was labelled with ^32P-dCTP using a random primer labelling system. […] Membranes were then washed, analysed using a phosphorimager and quantitated by MacBAS v2.5 software. For comparison, RNA samples from EDL muscle strips treated with or without 50 nM amylin were also analysed in parallel.

[3] = EDL strips from dexamethasone-treated rats, basal = no hormone
[4] = cells overexpressing both P20 and GLUT4myc vs GLUT4myc alone, n=4
[5] = EDL strips from non-diabetic control rats, mean ± SD

| Compound | mean blood glucose concentration (Male Wistar rats; 3.1 mg/kg/day i.p. for 7 days, 18 h fasted) | fasted basal plasma concentration of amylin (Male Wistar rats; dexamethasone-treated rats) | fasted basal plasma concentration of insulin (Male Wistar rats; dexamethasone-treated rats) | radioactivity of P20 isoform S1 (P20 [1]; [3]) | radioactivity of P20 isoform S2 (P20 [1]; [3]) | radioactivity of P20 isoform S3 (P20 [1]; [3]) | signals of both S2 and S3, fold higher than control rats (P20 [1]; without hormone stimulation, dexamethasone 3.1 mg/kg/day i.p. for 7 days) | reduction in rates of insulin-stimulated glycogen synthesis (skeletal muscle) | decrease of insulin-stimulated glucose uptake (L6 myotubes; GLUT4myc alone, 50 nM insulin plus 50 nM amylin) | increase of the inhibitory effect of amylin by P20 overexpression (L6 myotubes; [4]) | P20 mRNA level and protein abundance (P20 [2]) | decrease of insulin-induced phosphorylation of S1 (P20 [1]; 50 nM insulin plus 50 nM amylin vs 50 nM insulin alone, normal rats) | radioactivity of P20 isoform S1 (P20 [1]; [5]) | radioactivity of P20 isoform S2 (P20 [1]; [5]) | radioactivity of P20 isoform S3 (P20 [1]; [5]) | decrease of insulin-stimulated glucose uptake by P20 overexpression (L6 myotubes; [4]) | increase of 2-deoxyglucose uptake over basal level (L6 myotubes; myotubes overexpressing GLUT4myc alone, 50 nM insulin) | effect on phosphorylation of S2 and S3 induced by epinephrine and CGRP (P20 [1]; 50 nM each, normal rats) | decrease of amylin-evoked phosphorylation of S3 (P20 [1]; 50 nM insulin plus 50 nM amylin vs amylin alone, normal rats) | effect on amylin-evoked phosphorylation of S2 and S3 (P20 [1]; diabetic (dexamethasone-treated) rats) |
| --- | --- | --- | --- | --- | --- | --- | --- | --- | --- | --- | --- | --- | --- | --- | --- | --- | --- | --- | --- | --- |
| C[C@@H]1C[C@H]2[C@@H]3CCC4=CC(=O)C=C[C@]4(C)[C@@]3(F)[C@@H](O)C[C@]2(C)[C@@]1(O)C(=O)CO [Dexamethasone, dexamethasone] | 10.8 ± 0.6 mM | 144±17 pmol/1 | 789±94 pmol/1 | 439 PSL | 102 PSL | 98.6 PSL | about 5 fold | over 95% | – | – | – | – | – | – | – | – | – | – | – | – |
| Amylin: Rat amylin purchased from Bachem; hormone co-secreted with insulin from pancreatic islet β-cells (KCNTATCATQRLANFLVRSSNNLGPVLPPTNVGSNTY; ends and bridges not checked; cysteine pairing not given here; UniProt P12969 38-74, looked up) | – | – | – | 181 PSL | 280 PSL | 208 PSL | – | – | 28% | 24±2% | not changed | 49% | 191 ± 9 PSL | 289 ± 20 PSL | 226 ± 17 PSL | – | – | – | – | – |
| Insulin: Human insulin was Actrapid from Novo Nordisk | – | – | – | 843 PSL | 96.6 PSL | 92 PSL | – | – | – | – | – | – | 831 ± 40 PSL | 20.3 ± 3.4 PSL | 13.3 ± 1.3 PSL | 41±3% | 2.94±0.31 fold | no effect | 73% and ~74% | little affected |
